The values below come from patent publication US7179823B1, “5-membered n-heterocyclic compounds with hypoglycemic and hypolipidemic activity” (Takeda Pharmaceutical Company Limited, priority 1999, dated 2007).

Assay [1] has as its system KKA^y mice. Briefly: Hypoglycemic and hypolipidemic actions in mice. It counts as in vivo. As to conditions: Mus musculus, po, 96 h, four days; for inhibition in vivo at 0.01 %: 0.01% in powdery diet; for inhibition in vivo at 0.005 %: 0.005% in powdery diet; for inhibition in vivo at 0.0003 %: 0.0003% in powdery diet; for inhibition in vivo at 0.001 %: 0.001% in powdery diet. The text has this: Hypoglycemic and Hypolipidemic Actions in Mice
Test compounds were mixed in a powdery diet (CE-2, Japan Clea) at the concentration of 0.01% (compounds of Examples 12, 30, 89, 186), 0.005% (compounds of Examples 7, 80, 82, 181, 182, 184, 256, 262, 283), 0.001% (compounds of Examples 9, 104, 110, 155, 156, 160, 167, 169, 172, 174, 176, 189), or 0.0003% (compounds of Examples 38, 40, 44), and freely given to KKA^y mice (9 to 12 weeks old, 5 mice in a group), a model of obese and type 2 diabetes mellitus, for four days. During this period, water was given freely. Blood was sampled from orbital venous plexus, and glucose and triglyceride levels in plasma separated from blood were determined enzymatically using L type Wako Glu2 (Wako Pure Chemical Industries, Ltd.) or L type Wako TG•H (Wako Pure Chemical Industries, Ltd.), respectively.
In the Table, the value of each treatment group is represented as percent reduction compared with the non-treatment group.

Assay [2] addresses T1, PPARγ-RXRα heterodimer (Homo sapiens, UniProt P37231).
T1 construct: expressed in transfected cells; host or cells: CHO-K1
T1 sequence (P37231 1-477 isoform P37231-2): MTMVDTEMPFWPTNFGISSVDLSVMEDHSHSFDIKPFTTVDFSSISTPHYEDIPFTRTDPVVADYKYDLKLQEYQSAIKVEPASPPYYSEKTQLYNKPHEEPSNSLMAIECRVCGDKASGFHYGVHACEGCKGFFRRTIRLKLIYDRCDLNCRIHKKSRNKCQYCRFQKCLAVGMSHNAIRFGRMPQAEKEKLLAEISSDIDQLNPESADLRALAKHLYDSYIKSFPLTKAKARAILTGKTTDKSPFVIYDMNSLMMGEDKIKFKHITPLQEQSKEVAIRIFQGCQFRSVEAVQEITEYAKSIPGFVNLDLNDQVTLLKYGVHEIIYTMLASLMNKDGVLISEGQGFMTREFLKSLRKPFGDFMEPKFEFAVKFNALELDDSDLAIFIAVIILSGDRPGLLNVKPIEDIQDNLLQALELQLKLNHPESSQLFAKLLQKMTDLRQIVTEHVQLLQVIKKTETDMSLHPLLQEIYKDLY
T1 sequence (P19793 1-462 partner): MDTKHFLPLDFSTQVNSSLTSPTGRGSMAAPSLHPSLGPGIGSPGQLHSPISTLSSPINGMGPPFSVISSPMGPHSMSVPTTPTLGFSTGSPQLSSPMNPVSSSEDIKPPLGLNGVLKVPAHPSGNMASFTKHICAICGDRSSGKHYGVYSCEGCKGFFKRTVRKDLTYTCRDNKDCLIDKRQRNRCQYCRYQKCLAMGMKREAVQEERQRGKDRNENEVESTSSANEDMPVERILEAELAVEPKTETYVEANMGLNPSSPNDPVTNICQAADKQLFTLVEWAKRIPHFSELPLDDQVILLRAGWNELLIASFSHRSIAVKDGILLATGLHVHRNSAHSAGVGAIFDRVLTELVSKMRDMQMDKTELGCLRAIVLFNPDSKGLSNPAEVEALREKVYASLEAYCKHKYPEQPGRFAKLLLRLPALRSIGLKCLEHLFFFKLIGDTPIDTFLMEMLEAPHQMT
Briefly: PPARγ-RXRα heterodimer ligand activity (luciferase reporter, PPARγ:RXRα:4ERPP/CHO-K1 cells). The class given is cell-based. As to conditions: 48 hours, concentration for 50% of the maximum fold induction. As for the experimental part: (PPARγ-RXRα Heterodimer Ligand Activity)
A PPARγ:RXRα:4ERPP/CHO-K1 cells obtained in Reference Example 5 described later were cultured in HAM F12 medium (produced by NISSUI SEIYAKU) containing 10% Fetal bovine serum (produced by Life Technologies, Inc., USA) and then inoculated to a 96-well white plate (produced by Corning Costar Corporation, USA) at the density of 2×10^4 cells/well, and cultured in a CO2 gas incubator at 37° C. overnight.
After washing the 96 well white plate with PBS (Phosphate-buffered saline), 90 μl of HAM F12 medium containing 0.1% fatty acid-free bovine serum albumin (BSA) and 10 μl of test compound were added, which was cultured in a CO2 gas incubator at 37° C. for 48 hours. After removing the medium, 40 μl of PIKKAGENE 7.5 (produced by Wako Pure Chemical Industries, Ltd.) was added. After stirring, the luciferase activity was determined using Lumistar (produced by BMG Labtechnologies GmbH, Germany).
A fold induction was calculated based on the luciferase activity of each test compound by taking the luciferase activity in the non-treatment group as 1. The values of the test compound concentration and the fold induction were analyzed using PRISM 2.01 (produced by GraphPad Software Inc. USA) to calculate the EC50 values, the effective concentration of a test compound for 50% of the maximum fold induction.
(Introduction of Human PPARγ- and RXRα-Expressing Plasmid and Reporter Plasmid into CHO-K1 Cell and Establishment of Expressed Cell)
After a CHO-K1 cell cultured in a 750 ml tissue culture flask (produced by Corning Costar Corporation, USA) containing HAM F12 medium (produced by NISSUI SEIYAKU) supplemented with 10% Fetal Bovine Serum (produced by Life Technologies, Inc., USA) was scraped by treating with 0.5 g/L trypsin-0.2 g/L EDTA (ethylenediaminetetraacetic acid) (produced by Life Technologies, Inc., USA), the cell was washed with PBS (phosphate-buffered saline) (produced by Life Technologies, Inc., USA), centrifuged (1000 rpm, 5 minutes), and then suspended in PBS. Subsequently, a DNA was introduced into the cell under the condition shown below using GENE PULSER (produced by Bio-Rad Laboratories, USA).
Namely, to a cuvette having a 0.4 cm gap, added were 8×10^6 cells and 10 μg of plasmid pVgRXR2-hPPAR γ obtained in Reference Example 3 and 10 μg of reporter plasmid pGL3-4ERPP-TK neo obtained in Reference Example 4, which was subjected to electroporation at the voltage of 0.25 kV under the capacitance of 960 μF. Subsequently, the cell was transferred into a HAM F12 medium containing 10% Fetal Bovine Serum and cultured for 24 hours and then the cell was scraped again and centrifuged, and then suspended in HAM F12 medium containing 10% Fetal Bovine Serum supplemented with 500 μg/ml of GENETICIN (produced by Life Technologies, Inc., USA) and 250 μg/ml of ZEOCIN (produced by Invitrogen, USA) and diluted to the density of 10^4 cells/ml upon inoculation to a 96-well plate (produced by Corning Costar Corporation, USA), which was cultured in a CO2 gas incubator at 37° C., whereby obtaining a GENETICIN- and ZEOCIN-resistant transformant.
Subsequently, after the transformant cell line thus obtained was cultured in a 24-well plate (produced by Corning Costar Corporation, USA), selected was a cell line in which the luciferase was expressed and induced, i.e., PPARγ:RXRα:4ERPP/CHO-K1 cell by addition of 10 μM pioglitazone hydrochloride.

The mark [3] stands for this setting: percent reduction of plasma glucose compared with the non-treatment group, read-out: Hypoglycemic action (%).
Where [4] appears, read: percent reduction of plasma triglyceride compared with the non-treatment group, read-out: Hypolipidemic action (%).

The structures appear in SMILES notation. Where two headings read alike, the source gives them in different places.

Take `O=C(O)CCc1cn(Cc2ccc(OCc3csc(-c4ccccc4)n3)cc2)cc1-c1ccccc1` [Example 30, 3-[4-phenyl-1-[4-(2-phenyl-4-thiazolylmethoxy)benzyl]-3-pyrrolyl]propionic acid]: the inhibition in vivo at 0.01 % was determined as 54% in assay [1] (setting [3]) and 77% in assay [1] (setting [4]). Further, the midpoint of the response in assay [2], the EC50, lay at 9.7 nM.

As to `O=C(O)CCc1cn(Cc2ccc(OCc3cccnc3)cc2)cc1-c1ccccc1` [Example 12, 3-[4-phenyl-1-[4-(3-pyridylmethoxy)benzyl]-3-pyrrolyl]propionic acid], the inhibition in vivo at 0.01 % was determined as 46% in assay [1] (setting [3]) and 63% in assay [1] (setting [4]). Also, in assay [2], the EC50 stood at 320 nM.

`CCOc1nn(Cc2ccc(OCc3nc(-c4ccccc4)oc3C)nc2)cc1CC(=O)O` [Example 262, 3-ethoxy-1-[6-(5-methyl-2-phenyl-4-oxazolylmethoxy)-3-pyridylmethyl]-1H-pyrazol-4-ylacetic acid]: the inhibition in vivo at 0.005 % in assay [1] (setting [3]) worked out at 45%; in assay [1] (setting [4]) it was 61%. The concentration for a half-maximal effect (EC50) in assay [2] was 33 nM.

Take `O=C(O)CCc1cn(Cc2ccc(OCc3csc(-c4cccs4)n3)cc2)cc1-c1ccccc1` [Example 40, 3-[4-phenyl-1-[4-[2-(2-thienyl)-4-thiazolylmethoxy]benzyl]-3-pyrrolyl]propionic acid]: the inhibition in vivo at 0.0003 % turned out to be 41% in assay [1] (setting [3]) and 66% in assay [1] (setting [4]). This compound also had an EC50 in assay [2] of 57 nM.

Consider `Cc1oc(-c2ccccc2)nc1COc1ccc(Cn2cc(CCC(=O)O)c(-c3ccccc3)n2)cc1` [Example 89, 3-[1-[4-(5-methyl-2-phenyl-4-oxazolylmethoxy)benzyl]-3-phenyl-1H-pyrazol-4-yl]propionic acid], for which the results for the inhibition in vivo at 0.01 % in assay [1] (setting [3]) and in assay [1] (setting [4]) were 48% and 70%, respectively. Further, in assay [2], the EC50 worked out at 0.23 nM.

For `Cc1oc(-c2cccs2)nc1COc1ccc(Cn2cc(CCC(=O)O)c(-c3ccccc3)c2)cc1` [Example 9, 3-[1-[4-[5-methyl-2-(2-thienyl)-4-oxazolylmethoxy]benzyl]-4-phenyl-3-pyrrolyl]propionic acid], the inhibition in vivo at 0.001 % in assay [1] (setting [3]) was 48%; in assay [1] (setting [4]) it was 70%. For the same compound, the midpoint of the response in assay [2], the EC50, lay at 1.5 nM.

In the case of `Cc1oc(-c2ccccc2)nc1COc1ccc(Cn2cc(CCC(=O)O)c(-c3ccccc3)n2)cn1` [Example 283, 3-[1-[2-(5-methyl-2-phenyl-4-oxazolylmethoxy)-5-pyridylmethyl]-3-phenyl-1H-pyrazol-4-yl]propionic acid], the inhibition in vivo at 0.005 % in assay [1] (setting [3]) turned out to be 52%; in assay [1] (setting [4]), 78%. For the same compound, in assay [2], the response was half-maximal at 0.22 nM (EC50).

`O=C(O)CCc1cn(Cc2ccc(OCc3coc(-c4ccccc4)n3)cc2)cc1-c1ccccc1` [Example 44, 3-[4-phenyl-1-[4-(2-phenyl-4-oxazolylmethoxy]benzyl]-3-pyrrolyl]propionic acid]: the values for the inhibition in vivo at 0.0003 % in assay [1] (setting [3]) and in assay [1] (setting [4]) were 47% and 74%, respectively. This compound also had an EC50 in assay [2] of 13 nM.

Consider `O=C(O)CCc1cn(Cc2ccc(OCc3csc(-c4ccco4)n3)cc2)cc1-c1ccccc1` [Example 38, 3-[1-[4-[2-(2-furyl)-4-thiazolylmethoxy]benzyl]-4-phenyl-3-pyrrolyl]propionic acid], for which the inhibition in vivo at 0.0003 % is 44% in assay [1] (setting [3]) and 69% in assay [1] (setting [4]). Also, the EC50 in assay [2] was determined as 38 nM.

The term EC50 denotes the concentration that produces a half-maximal response. The low end stands for an effect from little substance, the high end for a need for much substance.
